Patent publication US4837206A, “Esperamicin derivatives” (Bristol-Myers Company, priority 1987, dated 1989)
≈ marks a conversion by molar mass, not a printed value.

Key:
[1] = test system: HCT/VM34; assay: In vitro cytotoxicity assay; format: cell-based; conditions: Homo sapiens; HCT/VM34, teniposide-resistant; cell growth inhibition; values <500 mcg/ml positive indicator of activity
Experimental: (§1) N-Acetylesperamicin A1 was also tested in the in vitro cytotoxicity assay. This assay involves growing various mammalian tumor cells, including human tumor cells, on microtiter plates employing established tissue culture methods. The concentration of compound required to inhibit cell growth by 50% (IC50) was then determined by a four-fold serial dilution technique. The validity of the method has been supported by a report published in the "Proceedings of the American Association for Cancer Research", Vol. 25, 328, p. 1891 (1984). Tumor cells of the following types were employed: B16-F10 murine melanoma, Moser human colon, and three human colon tumor cell lines, namely HCT-116, HCT-VM34 and HCT/VP35, the latter two being resistant to teniposide (VM) and etoposide (VP).

[2] = test system: B16-F10 murine melanoma; assay: In vitro cytotoxicity assay; format: cell-based; conditions: Mus musculus, cell growth inhibition, four-fold serial dilution, values <500 mcg/ml positive indicator of activity
Experimental: as §1

[3] = test system: HCT-116; assay: In vitro cytotoxicity assay; format: cell-based; conditions: Homo sapiens, cell growth inhibition, four-fold serial dilution, values <500 mcg/ml positive indicator of activity
Experimental: as §1

[4] = test system: Moser human colon; assay: In vitro cytotoxicity assay; format: cell-based; conditions: cell growth inhibition, four-fold serial dilution, values <500 mcg/ml positive indicator of activity
Experimental: as §1

[5] = test system: HCT/VP35; assay: In vitro cytotoxicity assay; format: cell-based; conditions: Homo sapiens; HCT/VP35, etoposide-resistant; cell growth inhibition; values <500 mcg/ml positive indicator of activity
Experimental: as §1

[6] = test system: E. coli A15119; assay: Antimicrobial activity, serial two-fold agar dilution; format: cell-based; conditions: Escherichia coli, nutrient agar medium
Experimental: (§2) Antimicrobial activity of N-acetylesperamicin A1 was determined for a variety of bacteria by the serial two-fold agar dilution method. Nutrient agar medium was used.

[7] = test system: S. faecalis/ATCC 29218 A25707; assay: as above; format: cell-based; conditions: Enterococcus faecalis, ATCC29218; nutrient agar medium
Experimental: as §2

[8] = test system: S. aureus/NCCLS strain A20698; assay: as above; format: cell-based; conditions: Staphylococcus aureus; nutrient agar medium
Experimental: as §2

[9] = test system: B. subtilis/ATCC 6633 A9506-A; assay: as above; format: cell-based; conditions: Bacillus subtilis, ATCC6633; nutrient agar medium
Experimental: as §2

[10] = test system: P. aeruginosa/ATCC 27853 A21508; assay: as above; format: cell-based; conditions: Pseudomonas aeruginosa, ATCC27853; nutrient agar medium
Experimental: as §2

[11] = test system: S. faecalis/ATCC 33186 A15708; assay: as above; format: cell-based; conditions: Enterococcus faecalis, ATCC33186; nutrient agar medium
Experimental: as §2

[12] = test system: P. aeruginosa A9843; assay: as above; format: cell-based; conditions: Pseudomonas aeruginosa, nutrient agar medium
Experimental: as §2

[13] = test system: P. vulgaris A21559; assay: as above; format: cell-based; conditions: Proteus vulgaris, nutrient agar medium
Experimental: as §2

[14] = test system: P. aeruginosa/ATCC 23389 A20235; assay: as above; format: cell-based; conditions: Pseudomonas aeruginosa, ATCC23389; nutrient agar medium
Experimental: as §2

[15] = test system: K. pneumoniae A20468; assay: as above; format: cell-based; conditions: Klebsiella pneumoniae, nutrient agar medium
Experimental: as §2

[16] = test system: S. aureus A9537; assay: as above; format: cell-based; conditions: Staphylococcus aureus, nutrient agar medium
Experimental: as §2

[17] = test system: S. faecalis A20688; assay: as above; format: cell-based; conditions: Enterococcus faecalis, nutrient agar medium
Experimental: as §2

[18] = test system: E. coli/NCCLS strain A20697; assay: as above; format: cell-based; conditions: Escherichia coli; nutrient agar medium
Experimental: as §2

[19] = test system: K. pneumoniae A9664; assay: as above; format: cell-based; conditions: Klebsiella pneumoniae, nutrient agar medium
Experimental: as §2

[20] = test system: S. aureus/ATCC 29213 A24407; assay: as above; format: cell-based; conditions: Staphylococcus aureus, ATCC29213; nutrient agar medium
Experimental: as §2

[21] = test system: pathogenic bacteria; assay: Antimicrobial activity (overall); format: cell-based
Experimental: as §2

[22] = test system: P388 murine leukemia; assay: P388 In Vivo Murine Leukemia Assay; parameters: species or system CDF1 female mice; conditions: i.p., once on day 1; for % T/C (median survival time): >=125% significant; for MST: control MST 9.5 days; for Average Wgt. change in g (day 4): control 1.1; for No. Mice alive on day 5/total: control 10/10
Experimental: The test protocol involved CDF1 female mice implanted intraperitoneally with a tumor inoculum of 10^6 ascites cells of P388 murine leukemia and treated with various doses of test compound. The compound was administered by intraperitoneal injection on a certain dosage schedule, i.e. test drug given once on day one, the day of tumor inoculation. Groups of four mice were used for each dosage amount. A group of ten saline-treated control mice was employed.
The test compound was dissolved in a mixture of water and ethanol. Death or survival of the treated and non-treated mice was recorded daily, and the median survival time (MST) in days was calculated for the test (T) and control (C) groups. […] Mice weighing 20 g each were employed and a loss in weight of up to about 2 grams was not considered excessive.

C=C(OC)C(=O)Nc1cc(OC)c(OC)cc1C(=O)OC1CC(OC2C(=O)C(NC(=O)OC)=C3C(=CCSSSC)C2(O)C#CC=CC#CC3OC2OC(C)C(NOC3CC(O)C(SC)C(C)O3)C(O)C2OC2CC(OC)C(N(C(C)=O)C(C)C)CO2)OC(C)C1O (stereo not shown) [N-Acetylesperamicin A1]
IC50 [1]: 0.3 µg/mL (≈ 0.219 µM) | IC50 [2]: 0.0522 µg/mL (≈ 0.0382 µM) | IC50 [3]: 0.0135 µg/mL (≈ 0.00987 µM) | IC50 [4]: 1 µg/mL (≈ 0.731 µM) | IC50 [5]: 0.0271 µg/mL (≈ 0.0198 µM) | MIC [6]: 32 µg/mL (≈ 23.4 µM) | MIC [7]: 0.016 µg/mL (≈ 0.0117 µM) | MIC [8]: 0.016 µg/mL (≈ 0.0117 µM) | MIC [9]: 0.03 µg/mL (≈ 0.0219 µM) | MIC [10]: > 125 µg/mL | MIC [11]: 0.016 µg/mL (≈ 0.0117 µM) | MIC [12]: > 125 µg/mL | MIC [13]: 125 µg/mL (≈ 91.4 µM) | MIC [14]: 125 µg/mL (≈ 91.4 µM) | MIC [15]: > 125 µg/mL | MIC [16]: 0.008 µg/mL (≈ 0.00585 µM) | MIC [17]: 0.03 µg/mL (≈ 0.0219 µM) | MIC [18]: 8 µg/mL (≈ 5.85 µM) | MIC [19]: 32 µg/mL (≈ 23.4 µM) | MIC [20]: 0.03 µg/mL (≈ 0.0219 µM) | Antibacterial activity (in words) [21]: showed activity against a variety of pathogenic bacteria | % T/C (median survival time) ([22]; 0.0016 mg/kg): 147% | MST ([22]; 0.0016 mg/kg): 14.0 days | Average Wgt. change in g (day 4) ([22]; 0.0016 mg/kg): -0.5 g | No. Mice alive on day 5/total ([22]; 0.0016 mg/kg): 6/6 | % T/C (median survival time) ([22]; 0.0032 mg/kg): 153% | MST ([22]; 0.0032 mg/kg): 14.5 days | Average Wgt. change in g (day 4) ([22]; 0.0032 mg/kg): -0.2 g | No. Mice alive on day 5/total ([22]; 0.0032 mg/kg): 6/6 | % T/C (median survival time) ([22]; 0.0064 mg/kg): 147% | MST ([22]; 0.0064 mg/kg): 14.0 days | Average Wgt. change in g (day 4) ([22]; 0.0064 mg/kg): -1.7 g | No. Mice alive on day 5/total ([22]; 0.0064 mg/kg): 6/6 | % T/C (median survival time) ([22]; 0.0128 mg/kg): 179% | MST ([22]; 0.0128 mg/kg): 17.0 days | Average Wgt. change in g (day 4) ([22]; 0.0128 mg/kg): -2.2 g | No. Mice alive on day 5/total ([22]; 0.0128 mg/kg): 6/6 | % T/C (median survival time) ([22]; 0.0256 mg/kg): 63% | MST ([22]; 0.0256 mg/kg): 6.0 days | Average Wgt. change in g (day 4) ([22]; 0.0256 mg/kg): -3.1 g | No. Mice alive on day 5/total ([22]; 0.0256 mg/kg): 4/6 | % T/C (median survival time) ([22]; 0.0512 mg/kg): 63% | MST ([22]; 0.0512 mg/kg): 6.0 days | Average Wgt. change in g (day 4) ([22]; 0.0512 mg/kg): -2.9 g | No. Mice alive on day 5/total ([22]; 0.0512 mg/kg): 4/6 | % T/C (median survival time) ([22]; 0.0896 mg/kg): TOX | MST ([22]; 0.0896 mg/kg): TOX | Average Wgt. change in g (day 4) ([22]; 0.0896 mg/kg): -3.4 g | No. Mice alive on day 5/total ([22]; 0.0896 mg/kg): 0/6
